Data as given in US10098870B2 (JENKEM TECHNOLOGY CO., LTD. (BEIJING), priority 2013, dated 2018).
Where “and” joins values, the source holds several entries; their conditions need not be identical. Equal values may be shown once. Entries after “also recorded” stand apart in the source; their conditions may differ. Read-outs that look alike come from different tables or passages of the source.

Key:
[1] = Body weight, survival and tolerance of mice bearing A549 (Example 10); conditions: mean ± SE;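 further: nude mice, each given 1.0×10^7 A549 tumor cells in the right shoulder region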
Protocol: (§1) 1.0×10^7 of A549 tumor cells were suspended in 0.1 ml of PBS, inoculated to each nude mouse at the right shoulder, and there were totally 36 mice inoculated.

[2] = tested on: H460 human non-small cell lung cancer cells; conditions: for T/C (%) RTV / T/C (%) TW: vs physiological saline; for RTV / Tumor weight: 29th day, Mean ± SEM; for Tumor volume: mean ± SE
Protocol: 5.0×10^6 of H460 tumor cells were suspended in 0.1 ml of PBS, inoculated to each nude mouse at the right shoulder, and there were totally 34 mice inoculated. 8 days later the mean tumor volume was desired to reach about 143 mm^3, the mice with a smaller or larger tumor were removed and the remaining 24 mice were divided into groups randomly according to tumor volume and administrated.

[3] = tested on: human hepatoma cell Hep3B; assay: Anti-tumor effect on xenograft tumor model of Hep3B in immune deficiency mice (Example 7); conditions: for T/C (%) RTV / T/C (%) TW: vs physiological saline; for RTV / Tumor weight: 44th day, Mean ± SEM; for Tumor volume: mean ± SE
[4] = tested on: human hepatoma cell plc/prf/5; assay: Anti-tumor effect on subcutaneous transplantation tumor model of plc/prf/5 in NOD/SCID mice (Example 5); type: in vivo, NOD/SCID mouse; conditions: for Tumor volume: 10 mg/kg (counted with rapamycin) i.v. Q2W×2W, mean ± SE
Protocol: The tumor cells were passaged with digestion by trypsin-EDTA twice a week. The cells in the exponential growth phase were collected, counted, and used for inoculation.
1×10^7 of plc/prf/5 tumor cells were suspended in 0.1 ml of mixed solution (PBS:Matrigel=4:1), inoculated to each NOD/SCID mouse at the right shoulder.
Wherein Q2W×2W represents intravenous injection […] for 2 weeks, the same below. (2) Experimental Results

[5] = Body weight, survival and tolerance of mice bearing Hep3B (Example 7); type: in vivo, mouse; conditions: mean ± SE
[6] = tested on: A549 human non-small cell lung cancer cells; assay: Anti-tumor effect on xenograft tumor model of A549 in nude mice (Example 10); conditions: for T/C (%) RTV / T/C (%) TW: vs physiological saline; for RTV / Tumor weight: 52nd day, Mean ± SEM; for Tumor volume: mean ± SE;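 on all read-outs here: nude mice bearing A549 xenografts established by inoculating 1.0×10^7 cells in PBS at the right shoulder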
Protocol: A549 cells were cultured with a monolayer in vitro in RPMI1640 medium supplied with heat-inactivated fetal bovine serum with a volume ratio of 10%, and an incubator at 37° C. with the air containing CO2 with a proportion of 5%. The tumor cells were passaged with digestion by trypsin-EDTA twice a week. The cells in the exponential growth phase were collected, counted, and used for inoculation.
as §1

[7] = day 24 after inoculation, 30 mg/kg i.v. BIW×4W
[8] = day 24 after inoculation, 45 mg/kg i.v. QW×4W
[9] = day 28 after inoculation, 30 mg/kg i.v. BIW×4W
[10] = day 28 after inoculation, 45 mg/kg i.v. QW×4W
[11] = day 31 after inoculation, 30 mg/kg i.v. BIW×4W
[12] = day 31 after inoculation, 45 mg/kg i.v. QW×4W
[13] = day 35 after inoculation, 30 mg/kg i.v. BIW×4W
[14] = day 35 after inoculation, 45 mg/kg i.v. QW×4W
[15] = day 38 after inoculation, 30 mg/kg i.v. BIW×4W
[16] = day 38 after inoculation, 45 mg/kg i.v. QW×4W
[17] = day 42 after inoculation, 30 mg/kg i.v. BIW×4W
[18] = day 42 after inoculation, 45 mg/kg i.v. QW×4W
[19] = day 45 after inoculation, 30 mg/kg i.v. BIW×4W
[20] = day 45 after inoculation, 45 mg/kg i.v. QW×4W
[21] = day 49 after inoculation, 30 mg/kg i.v. BIW×4W
[22] = day 49 after inoculation, 45 mg/kg i.v. QW×4W
[23] = day 16 after inoculation, 30 mg/kg i.v. BIW×4W
[24] = day 16 after inoculation, 45 mg/kg i.v. QW×4W
[25] = day 20 after inoculation, 30 mg/kg i.v. BIW×4W
[26] = day 20 after inoculation, 45 mg/kg i.v. QW×4W
[27] = day 23 after inoculation, 30 mg/kg i.v. BIW×4W
[28] = day 23 after inoculation, 45 mg/kg i.v. QW×4W
[29] = day 27 after inoculation, 30 mg/kg i.v. BIW×4W
[30] = day 27 after inoculation, 45 mg/kg i.v. QW×4W
[31] = day 30 after inoculation, 30 mg/kg i.v. BIW×4W
[32] = day 30 after inoculation, 45 mg/kg i.v. QW×4W
[33] = day 34 after inoculation, 30 mg/kg i.v. BIW×4W
[34] = day 34 after inoculation, 45 mg/kg i.v. QW×4W
[35] = day 37 after inoculation, 30 mg/kg i.v. BIW×4W
[36] = day 37 after inoculation, 45 mg/kg i.v. QW×4W
[37] = day 41 after inoculation, 30 mg/kg i.v. BIW×4W
[38] = day 41 after inoculation, 45 mg/kg i.v. QW×4W

## monomethoxy polyethylene glycol (20K)-glutamic acid dipeptide-rapamycin conjugate [LPR-2]
[1]; [7]
  Body weight of animal: 21.6 ± 0.5 g
[1]; [8]
  Body weight of animal: 20.9 ± 0.3 g
[1]; [9]
  Body weight of animal: 20.9 ± 0.4 g
[1]; [10]
  Body weight of animal: 20.8 ± 0.1 g
[1]; [11]
  Body weight of animal: 21.4 ± 0.4 g
[1]; [12]
  Body weight of animal: 21.1 ± 0.2 g
[1]; [13]
  Body weight of animal: 21.8 ± 0.4 g
[1]; [14]
  Body weight of animal: 21.1 ± 0.3 g
[1]; [15]
  Body weight of animal: 21.6 ± 0.4 g
[1]; [16]
  Body weight of animal: 21.6 ± 0.3 g
[1]; [17]
  Body weight of animal: 22.5 ± 0.3 g
[1]; [18]
  Body weight of animal: 22.0 ± 0.3 g
[1]; [19]
  Body weight of animal: 22.2 ± 0.3 g
[1]; [20]
  Body weight of animal: 22.4 ± 0.3 g
[1]; [21]
  Body weight of animal: 22.0 ± 0.3 g
[1]; [22]
  Body weight of animal: 21.5 ± 0.3 g
[1]; day 52 after inoculation, 30 mg/kg i.v. BIW×4W
  Body weight of animal: 22.0 ± 0.3 g
[1]; day 52 after inoculation, 45 mg/kg i.v. QW×4W
  Body weight of animal: 22.1 ± 0.3 g
[2]; 30 mg/kg i.v. BIW×3W
  TGD (to 1,000 mm^3): >9
  T/C (%) RTV: 22%
  T/C (%) TW: 23%
  RTV: 3.43 ± 0.32
  Tumor weight: 364 ± 54 mg
[2]; 45 mg/kg i.v. QW×3W
  TGD (to 1,000 mm^3): >9
  T/C (%) RTV: 25%
  T/C (%) TW: 25%
  RTV: 3.86 ± 0.42
  Tumor weight: 406 ± 60 mg
[2]; day 8 after inoculation, 30 mg/kg i.v. BIW×3W
  Tumor volume: 143 ± 16 mm^3
[2]; day 8 after inoculation, 45 mg/kg i.v. QW×3W
  Tumor volume: 143 ± 18 mm^3
[2]; day 12 after inoculation, 30 mg/kg i.v. BIW×3W
  Tumor volume: 213 ± 40 mm^3
[2]; day 12 after inoculation, 45 mg/kg i.v. QW×3W
  Tumor volume: 194 ± 33 mm^3
[2]; day 15 after inoculation, 30 mg/kg i.v. BIW×3W
  Tumor volume: 208 ± 44 mm^3
[2]; day 15 after inoculation, 45 mg/kg i.v. QW×3W
  Tumor volume: 260 ± 46 mm^3
[2]; day 19 after inoculation, 30 mg/kg i.v. BIW×3W
  Tumor volume: 259 ± 50 mm^3
[2]; day 19 after inoculation, 45 mg/kg i.v. QW×3W
  Tumor volume: 282 ± 46 mm^3
[2]; day 22 after inoculation, 30 mg/kg i.v. BIW×3W
  Tumor volume: 343 ± 67 mm^3
[2]; day 22 after inoculation, 45 mg/kg i.v. QW×3W
  Tumor volume: 346 ± 53 mm^3
[2]; day 26 after inoculation, 30 mg/kg i.v. BIW×3W
  Tumor volume: 459 ± 70 mm^3
[2]; day 26 after inoculation, 45 mg/kg i.v. QW×3W
  Tumor volume: 468 ± 57 mm^3
[2]; day 29 after inoculation, 30 mg/kg i.v. BIW×3W, 30 mg/kg
  Tumor volume: 505 mm^3 and 505 ± 87 mm^3
[2]; day 29 after inoculation, 45 mg/kg i.v. QW×3W, 45 mg/kg
  Tumor volume: 549 mm^3 and 549 ± 76 mm^3
[3]; 30 mg/kg i.v. BIW×4W
  TGD (to 1,000 mm^3): 17
  T/C (%) RTV: 54%
  T/C (%) TW: 46%
  RTV: 2.43 ± 0.19
  Tumor weight: 720 ± 94 mg
[3]; 45 mg/kg i.v. QW×4W
  TGD (to 1,000 mm^3): >17
  T/C (%) RTV: 42%
  T/C (%) TW: 40%
  RTV: 1.85 ± 0.17
  Tumor weight: 625 ± 84 mg
[3]; 5-FU 15 mg/kg, LPR-2 30 and 45 mg/kg
  anti-tumor effect (in words): slightly better than that of the 5-FU; also recorded: a common anti-tumor effect
[3]; [23]
  Tumor volume: 454 ± 60 mm^3
[3]; [24]
  Tumor volume: 453 ± 56 mm^3
[3]; [25]
  Tumor volume: 524 ± 47 mm^3
[3]; [26]
  Tumor volume: 490 ± 73 mm^3
[3]; [27]
  Tumor volume: 622 ± 37 mm^3
[3]; [28]
  Tumor volume: 549 ± 83 mm^3
[3]; [29]
  Tumor volume: 643 ± 45 mm^3
[3]; [30]
  Tumor volume: 589 ± 91 mm^3
[3]; [31]
  Tumor volume: 689 ± 57 mm^3
[3]; [32]
  Tumor volume: 584 ± 87 mm^3
[3]; [33]
  Tumor volume: 761 ± 82 mm^3
[3]; [34]
  Tumor volume: 608 ± 89 mm^3
[3]; [35]
  Tumor volume: 899 ± 97 mm^3
[3]; [36]
  Tumor volume: 699 ± 102 mm^3
[3]; [37]
  Tumor volume: 995 ± 126 mm^3
[3]; [38]
  Tumor volume: 733 ± 93 mm^3
[4]; 10 mg/kg counted with rapamycin, i.v. Q2W×2W
  anti-tumor effect (in words): stronger antitumor activity than that of polyethylene glycol-rapamycin (LPR-1); also recorded: a certain anti-tumor effect; also recorded: obviously the maximum anti-tumor effect; also recorded: anti-tumor effect significantly higher than that of LPR-1
[4]; 10 mg/kg i.v. Q2W×2W
  Days for delaying tumor growth (to 1000 mm^3): >7 days
[4]; day 24 after inoculation
  Tumor volume: 353 ± 54 mm^3
[4]; day 27 after inoculation
  Tumor volume: 404 ± 89 mm^3
[4]; day 31 after inoculation
  Tumor volume: 391 ± 72 mm^3
[4]; day 34 after inoculation
  Tumor volume: 456 ± 77 mm^3
[4]; day 38 after inoculation
  Tumor volume: 536 ± 77 mm^3
[5]; [23]
  Body weight of animal: 20.2 ± 0.6 g
[5]; [24]
  Body weight of animal: 19.2 ± 0.5 g
[5]; [25]
  Body weight of animal: 19.7 ± 0.4 g
[5]; [26]
  Body weight of animal: 18.6 ± 0.4 g
[5]; [27]
  Body weight of animal: 20.4 ± 0.5 g
[5]; [28]
  Body weight of animal: 18.6 ± 0.4 g
[5]; [29]
  Body weight of animal: 19.7 ± 0.5 g
[5]; [30]
  Body weight of animal: 17.9 ± 0.4 g
[5]; [31]
  Body weight of animal: 19.1 ± 0.5 g
[5]; [32]
  Body weight of animal: 18.2 ± 0.4 g
[5]; [33]
  Body weight of animal: 19.1 ± 0.6 g
[5]; [34]
  Body weight of animal: 18.2 ± 0.4 g
[5]; [35]
  Body weight of animal: 18.6 ± 0.4 g
[5]; [36]
  Body weight of animal: 18.0 ± 0.3 g
[5]; [37]
  Body weight of animal: 17.9 ± 0.3 g
[5]; [38]
  Body weight of animal: 16.7 ± 0.5 g
[5]; day 44 after inoculation, 30 mg/kg i.v. BIW×4W
  Body weight of animal: 17.3 ± 0.3 g
[5]; day 44 after inoculation, 45 mg/kg i.v. QW×4W
  Body weight of animal: 17.1 ± 0.4 g
[6]; 30 mg/kg i.v. BIW×4W
  TGD (to 1,000 mm^3): >7
  T/C (%) RTV: 10%
  T/C (%) TW: 8%
  RTV: 0.94 ± 0.11
  Tumor weight: 102 ± 15 mg
[6]; 45 mg/kg i.v. QW×4W
  TGD (to 1,000 mm^3): >7
  T/C (%) RTV: 11%
  T/C (%) TW: 10%
  RTV: 1.05 ± 0.11
  Tumor weight: 129 ± 20 mg
[6]; [7]
  Tumor volume: 140 ± 11 mm^3
[6]; [8]
  Tumor volume: 139 ± 11 mm^3
[6]; [9]
  Tumor volume: 131 ± 8 mm^3
[6]; [10]
  Tumor volume: 115 ± 8 mm^3
[6]; [11]
  Tumor volume: 134 ± 11 mm^3
[6]; [12]
  Tumor volume: 126 ± 10 mm^3
[6]; [13]
  Tumor volume: 124 ± 15 mm^3
[6]; [14]
  Tumor volume: 122 ± 13 mm^3
[6]; [15]
  Tumor volume: 131 ± 13 mm^3
[6]; [16]
  Tumor volume: 120 ± 13 mm^3
[6]; [17]
  Tumor volume: 122 ± 8 mm^3
[6]; [18]
  Tumor volume: 124 ± 9 mm^3
[6]; [19]
  Tumor volume: 131 ± 9 mm^3
[6]; [20]
  Tumor volume: 140 ± 11 mm^3
[6]; [21]
  Tumor volume: 128 ± 9 mm^3
[6]; [22]
  Tumor volume: 138 ± 14 mm^3
[6]; day 52 after inoculation, 30 mg/kg i.v. BIW×4W, 30 mg/kg
  Tumor volume: 127 mm^3 and 127 ± 6 mm^3
[6]; day 52 after inoculation, 45 mg/kg i.v. QW×4W, 45 mg/kg
  Tumor volume: 145 mm^3 and 145 ± 14 mm^3
